Patent publication US10166270B2, “Composition and method for affecting cytokines and NF-κB” (priority 2004, dated 2019)

What was measured:
[1] = target: T1, human COX-2 (Homo sapiens, UniProt P35354); assay: in vitro COX-2 inhibition (arachidonic acid to PGE2, EIA); format: biochemical; conditions: read-out: % COX-2 Inhibition (Individual assay values)
T1 construct: host or cells: Sf21 insect cells
T1 sequence (P35354 18-604): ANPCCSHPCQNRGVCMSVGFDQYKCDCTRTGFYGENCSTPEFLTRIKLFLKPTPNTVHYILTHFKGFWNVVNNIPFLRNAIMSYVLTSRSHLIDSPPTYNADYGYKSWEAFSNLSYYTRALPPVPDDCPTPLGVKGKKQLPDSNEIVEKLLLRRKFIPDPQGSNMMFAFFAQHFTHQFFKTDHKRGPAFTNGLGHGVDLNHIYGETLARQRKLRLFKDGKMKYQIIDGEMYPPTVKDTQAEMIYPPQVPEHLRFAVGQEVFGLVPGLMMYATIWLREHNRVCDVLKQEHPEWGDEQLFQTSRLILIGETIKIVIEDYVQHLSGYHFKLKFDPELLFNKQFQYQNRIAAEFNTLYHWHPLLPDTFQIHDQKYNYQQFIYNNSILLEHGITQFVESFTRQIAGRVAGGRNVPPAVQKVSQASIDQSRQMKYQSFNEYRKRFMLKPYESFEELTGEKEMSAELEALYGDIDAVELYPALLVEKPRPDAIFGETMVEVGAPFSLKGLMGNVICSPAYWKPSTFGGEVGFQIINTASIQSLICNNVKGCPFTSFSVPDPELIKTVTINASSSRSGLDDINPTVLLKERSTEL
Method: Three separate preparations of the phyto-percolate were screened, using an in vitro assay, for COX-2 inhibition. Riendeau et al., Can. J. Physiol. […] Briefly, this assay measured to conversion of 0.3 μM arachidonic acid to PGE2 by human recombinant insect Sf21 cells expression human COX-2. The incubation buffer contained 100 mM Tris-HCl (pH 7.7), 1 mM glutathione, 1 μM hematin, and 500 μM phenol. PGE2 was quantified using an enzyme-linked immunoassay (EIA).
Sample 1 was a sample of diluted phyto-percolate concentrated approximately 100-fold by drying under N2. Sample 2 was prepared by drying a 4800 μl sample of diluted phyto-percolate under N2 and reconstituting it in 96 μl of ddH2O just prior to assay. Sample 3 was prepared by lyophilizing a 4800 μl sample of diluted phyto-percolate and reconstituting it in 96 μl of ddH2O just prior to assay. The concentrations of phyto-percolate used, 100×, 10×, and IX, refer to 10 μl, 1 μl, and 0.1 μl of sample, respectively, in a final assay volume of 100 μl. […] Each sample was assayed in at least three concentrations and the assays were performed in duplicate.

[2] = system: carrageenan-induced paw edema; assay: Carrageenan-induced paw edema; format: in vivo, rat
Source text: The carrageenan-induced paw edema assay was used as an in vivo indicator of the anti-inflammatory effects of the phyto-percolate. Carrageenan induces local inflammation and edema when injected into the paw pad of a rat (Di Rosa et al., 1971). The development of paw edema is believed to be biphasic (Vinegar et al., 1969). The initial phase is attributable to the local release of histamine and serotonin (Crunkhon et al., 1971) and the second phase is caused by prostaglandin release as a result of COX activation. […] Each treatment group is compared to control.

[3] = system: NF-κB; assay: EMSA of DNA-binding activity of NF-κB in cultured PBMC; format: cell-based, human; conditions: TNF-α (50 ng/ml) added one hour before harvesting
Method: (§1) According to this exemplary embodiment, phyto-percolate and the flow-through/F4 were tested as they appeared in their original concentrations right off the columns, only diluted 1:20 and 1:100 as described herein. The culture of peripheral blood mononuclear cells (“PBMC”) is prepared with two vials of frozen PBMCs that were obtained from normal healthy human subjects by a commercial vendor and were added to 2×10 ml medium and centrifuged. PBMCs were resuspended and cultured in RPMI1640/5% FBS for 24 h. (1 vial of frozen cells in 11 ml medium).
Treatment agents for this exemplary method comprise three agents: unseparated phyto-percolate (‘PAZ’), fraction 3 (‘F3’), fraction 4 (‘F4’). Treatment concentration for each was 1:20 & 1:100. An exemplary sample preparation method for each agent by dilution is as follows: First, a 1:10 dilution is prepared by combining 0.7 ml agent (either PAZ, F3 or F4)+6.3 ml RPMI1640/5% FBS to obtain a total volume of 7 ml of a 1:10 solution. […]
Analysis of the effect of phyto-percolate or fractions isolated therefrom on the DNA-binding activity of NF-κB in the nuclear protein fractions of the cultured PBMC was determined as follows in this exemplary embodiment: approximately 18.26 mL of suspended PBMC were added to approximately 18 mL of culture medium and 2 mL of this cell suspension (2,718,000 cells in 2 mL) were seeded into each 60 mm culture dish. […]

[4] = system: IL-2; assay: ELISA of cytokine secretion by PBMC: IL-2; format: cell-based, human; conditions: PMA added to cultured PBMC (with ionomycin)
Method: as §1
(§2) Treatment agents for this exemplary method comprise three agents: unseparated phyto-percolate (‘PAZ’), fraction 3 (‘F3’), fraction 4 (‘F4’). Treatment concentration for each was 1:20 & 1:100. […]
(§3) According to this exemplary embodiment, seeding, treatment, and detection is accomplished by the following steps. Two dishes of PBMCs were combined and the small amount of PBMCs was stained with 0.4% Trypan blue and the cell number of PBMCs was counted using known techniques.
(§4) In this embodiment, an enzyme linked immunosorbent assay (“ELISA”) analysis of inflammatory cytokine secretion, a protocol provided in a commercial kit for the parallel quantification of the production of human cytokines was employed. […]

[5] = system: IL-17A; assay: ELISA of cytokine secretion by PBMC: IL-17A; format: cell-based, human; conditions: PMA added to cultured PBMC
Method: as §1, §2, §3, §4

[6] = system: IFN-γ; assay: ELISA of cytokine secretion by PBMC: IFN-γ; format: cell-based, human; conditions: PMA added to cultured PBMC
Method: as §1, §2, §3, §4

[7] = system: TNF-α; assay: ELISA of cytokine secretion by PBMC: TNF-α; format: cell-based, human; conditions: PMA added to cultured PBMC
Method: as §1, §2, §3, §4

[8] = system: GM-CSF; assay: ELISA of cytokine secretion by PBMC: GM-CSF; format: cell-based, human; conditions: PMA added to cultured PBMC
Method: as §1, §2, §3, §4

[9] = 0 hours, oral dose 30 min before carrageenan, n=6

| Molecule | paw volume, % change from control ([2]; 0 hours) | Mean paw volume ± SD [2, 9] | Mean paw volume ± SD ([2]; 2 hours) | paw volume, % change from control ([2]; 2 hours) | Mean paw volume ± SD ([2]; 4 hours) | paw volume, % change from control ([2]; 4 hours) | Mean paw volume ± SD ([2]; 6 hours) | paw volume, % change from control ([2]; 6 hours) | Mean paw volume ± SD ([2]; 8 hours) | paw volume, % change from control ([2]; 8 hours) | Mean paw volume ± SD ([2]; 20 hours) | paw volume, % change from control ([2]; 20 hours) | also measured |
| --- | --- | --- | --- | --- | --- | --- | --- | --- | --- | --- | --- | --- | --- |
| CS(=O)(=O)c1ccc(C2=C(c3ccccc3)C(=O)OC2)cc1 [rofecoxib] | – | – | – | – | – | – | – | – | – | – | – | – | inhibition at 0.01 µM [1]: 11%; inhibition at 0.03 µM [1]: 16%; inhibition at 0.1 µM [1]: 33%; inhibition at 0.3 µM [1]: 55%; inhibition at 1 µM [1]: 88% |
| CC(=O)Oc1ccccc1C(=O)O [Aspirin, aspirin] | (1%) | 1.25 ± 0.08 mL | 2.22 ± 0.28 mL | (4%) | 2.07 ± 0.23 mL | (−10%) | 1.92 ± 0.18 mL | (−20%) | 1.80 ± 0.18 mL | (−25%) | 1.42 ± 0.16 mL | (−23%) | – |
| TNF-α | – | – | – | – | – | – | – | – | – | – | – | – | DNA-binding activity of NF-κB, relative level (control = 1.0) [3]: ~2.0 |
| CCCCCCCCCCCCCC(=O)O[C@@H]1[C@@H](C)[C@@]2(O)[C@@H](C=C(CO)C[C@]3(O)C(=O)C(C)=C[C@@H]23)[C@@H]2C(C)(C)[C@]12OC(C)=O [PMA, phorbol myristate acetate] | – | – | – | – | – | – | – | – | – | – | – | – | secretion of IL-2 [4]: approximately 125 pg/100,000 cells; secretion of IL-17A [5]: approximately 3 pg/100,000 cells; secretion of IFN-γ [6]: approximately 70 pg/100,000 cells; secretion of TNF-α [7]: approximately 50 pg/100,000 cells; secretion of GM-CSF [8]: approximately 50 pg/100,000 cells |
| COc1ccc2c(c1)c(CC(=O)O)c(C)n2C(=O)c1ccc(Cl)cc1 [Indomethacin, indomethacin] | (1%) | 1.25 ± 0.05 mL | 2.25 ± 0.23 mL | (7%) | 2.18 ± 0.22 mL | (1%) | 2.00 ± 0.22 mL | (−12%) | 1.83 ± 0.23 mL | (−22%) | 1.37 ± 0.10 mL | (−38%) | – |
